Results published in PubChem BioAssay AID2060508 (Molecular Pharmacology Branch, DTP, NCI, 2025).

Tested on: 454973-116-R2-J3-PDC spheroids, viability, % test/control
Assay: Anticancer human tumor 454973-116-R2-J3-PDC patient-derived pancreatic carcinoma cell line growth inhibition [GQUAD]
Conditions: spheroids with HUVEC and MSC; for IC50: curve of first compound; for viability, T/C: stronger effect = lower value
Outline: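 Viability of tumor cells grown as complex spheroids with endothelial and stromal cells, exposed to drug combinations. Top concentration at or near clinical Cmax (else 10 microM), diluted in half-log increments.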

[1] = second compound 0.0316 µM, first compound 0.0316 µM
[2] = second compound 0.0316 µM, first compound 0.1 µM
[3] = second compound 0.0316 µM, first compound 0.316 µM
[4] = second compound 0.0316 µM, first compound 1 µM
[5] = second compound 0.0316 µM, first compound 3.16 µM
[6] = second compound 0.0316 µM, first compound 10 µM
[7] = second compound 0.1 µM, first compound 0.0316 µM
[8] = second compound 0.1 µM, first compound 0.1 µM
[9] = second compound 0.1 µM, first compound 0.316 µM
[10] = second compound 0.1 µM, first compound 1 µM
[11] = second compound 0.1 µM, first compound 3.16 µM
[12] = second compound 0.1 µM, first compound 10 µM
[13] = second compound 0.316 µM, first compound 0.0316 µM
[14] = second compound 0.316 µM, first compound 0.1 µM
[15] = second compound 0.316 µM, first compound 0.316 µM
[16] = second compound 0.316 µM, first compound 1 µM
[17] = second compound 0.316 µM, first compound 3.16 µM
[18] = second compound 0.316 µM, first compound 10 µM
[19] = second compound 1 µM, first compound 0.0316 µM
[20] = second compound 1 µM, first compound 0.1 µM
[21] = second compound 1 µM, first compound 0.316 µM
[22] = second compound 1 µM, first compound 1 µM
[23] = second compound 1 µM, first compound 3.16 µM
[24] = second compound 1 µM, first compound 10 µM
[25] = second compound 3.16 µM, first compound 0.0316 µM
[26] = second compound 3.16 µM, first compound 0.1 µM
[27] = second compound 3.16 µM, first compound 0.316 µM
[28] = second compound 3.16 µM, first compound 1 µM
[29] = second compound 3.16 µM, first compound 3.16 µM
[30] = second compound 3.16 µM, first compound 10 µM
[31] = second compound 10 µM, first compound 0.0316 µM
[32] = second compound 10 µM, first compound 0.1 µM
[33] = second compound 10 µM, first compound 0.316 µM
[34] = second compound 10 µM, first compound 1 µM
[35] = second compound 10 µM, first compound 3.16 µM
[36] = second compound 10 µM, first compound 10 µM
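Further: spheroids exposed to compounds for seven days.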
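Wherever viability, T/C is given: 100% = DMSO vehicle control viability.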

CC(C)(O)C1CCC(Nc2ccc3ncc(-c4cccc(C(F)(F)F)c4)n3n2)CC1 (stereo unspecified) + CN(C)c1ccc(Nc2c3ccc(NC(=O)CCN4CCCC4)cc3nc3cc(NC(=O)CCN4CCCC4)ccc23)cc1
IC50 (second compound 0.0316 µM): 1780 nM | IC50 (second compound 0.1 µM): 1730 nM | IC50 (second compound 0.316 µM): 1540 nM | IC50 (second compound 1 µM): 1250 nM | IC50 (second compound 3.16 µM): 739 nM | IC50 (second compound 10 µM): 808 nM | viability, T/C [1]: 108% | viability, T/C [2]: 101% | viability, T/C [3]: 94.8% | viability, T/C [4]: 77% | viability, T/C [5]: 17.3% | viability, T/C [6]: 29.5% | viability, T/C [7]: 93.8% | viability, T/C [8]: 90.3% | viability, T/C [9]: 102% | viability, T/C [10]: 72.6% | viability, T/C [11]: 15.6% | viability, T/C [12]: 34.5% | viability, T/C [13]: 95.3% | viability, T/C [14]: 90.3% | viability, T/C [15]: 83.9% | viability, T/C [16]: 62.9% | viability, T/C [17]: 23.3% | viability, T/C [18]: 33.2% | viability, T/C [19]: 87.9% | viability, T/C [20]: 92% | viability, T/C [21]: 84.5% | viability, T/C [22]: 55.8% | viability, T/C [23]: 22.6% | viability, T/C [24]: 30.5% | viability, T/C [25]: 85.8% | viability, T/C [26]: 82.7% | viability, T/C [27]: 80.2% | viability, T/C [28]: 39.4% | viability, T/C [29]: 22.6% | viability, T/C [30]: 31.6% | viability, T/C [31]: 62.3% | viability, T/C [32]: 64.8% | viability, T/C [33]: 55% | viability, T/C [34]: 48.1% | viability, T/C [35]: 12.1% | viability, T/C [36]: 10.4%

Cc1[nH]c2ccccc2c1CCNCc1ccc(/C=C/C(=O)NO)cc1 + CN(C)c1ccc(Nc2c3ccc(NC(=O)CCN4CCCC4)cc3nc3cc(NC(=O)CCN4CCCC4)ccc23)cc1
IC50 (second compound 0.0316 µM): 72.5 nM | IC50 (second compound 0.1 µM): 66.8 nM | IC50 (second compound 0.316 µM): 56.3 nM | IC50 (second compound 1 µM): 48.8 nM | IC50 (second compound 3.16 µM): 53.2 nM | IC50 (second compound 10 µM): 35.4 nM | viability, T/C (second compound 0.0316 µM, first compound 0.000999 µM): 104% | viability, T/C (second compound 0.0316 µM, first compound 0.00316 µM): 102% | viability, T/C (second compound 0.0316 µM, first compound 0.00999 µM): 106% | viability, T/C [1]: 83.2% | viability, T/C (second compound 0.0316 µM, first compound 0.0999 µM): 37.1% | viability, T/C [3]: 6.62% | viability, T/C (second compound 0.1 µM, first compound 0.000999 µM): 107% | viability, T/C (second compound 0.1 µM, first compound 0.00316 µM): 96.7% | viability, T/C (second compound 0.1 µM, first compound 0.00999 µM): 92.8% | viability, T/C [7]: 89.5% | viability, T/C (second compound 0.1 µM, first compound 0.0999 µM): 28.9% | viability, T/C [9]: 6.22% | viability, T/C (second compound 0.316 µM, first compound 0.000999 µM): 93.8% | viability, T/C (second compound 0.316 µM, first compound 0.00316 µM): 93.3% | viability, T/C (second compound 0.316 µM, first compound 0.00999 µM): 99.2% | viability, T/C [13]: 68.7% | viability, T/C (second compound 0.316 µM, first compound 0.0999 µM): 30.2% | viability, T/C [15]: 6.88% | viability, T/C (second compound 1 µM, first compound 0.000999 µM): 96.8% | viability, T/C (second compound 1 µM, first compound 0.00316 µM): 92.5% | viability, T/C (second compound 1 µM, first compound 0.00999 µM): 92.3% | viability, T/C [19]: 65.1% | viability, T/C (second compound 1 µM, first compound 0.0999 µM): 24.5% | viability, T/C [21]: 8.83% | viability, T/C (second compound 3.16 µM, first compound 0.000999 µM): 90.1% | viability, T/C (second compound 3.16 µM, first compound 0.00316 µM): 86.7% | viability, T/C (second compound 3.16 µM, first compound 0.00999 µM): 82.1% | viability, T/C [25]: 70.3% | viability, T/C (second compound 3.16 µM, first compound 0.0999 µM): 26.2% | viability, T/C [27]: 7.17% | viability, T/C (second compound 10 µM, first compound 0.000999 µM): 68% | viability, T/C (second compound 10 µM, first compound 0.00316 µM): 70.9% | viability, T/C (second compound 10 µM, first compound 0.00999 µM): 65.6% | viability, T/C [31]: 51.8% | viability, T/C (second compound 10 µM, first compound 0.0999 µM): 27.1% | viability, T/C [33]: 4.66%

O=C(NO)c1cnc(N2CCN(S(=O)(=O)c3ccc4ccccc4c3)CC2)nc1 + CN(C)c1ccc(Nc2c3ccc(NC(=O)CCN4CCCC4)cc3nc3cc(NC(=O)CCN4CCCC4)ccc23)cc1
IC50 (second compound 0.0316 µM): 212 nM | IC50 (second compound 0.1 µM): 202 nM | IC50 (second compound 0.316 µM): 197 nM | IC50 (second compound 1 µM): 195 nM | IC50 (second compound 3.16 µM): 178 nM | IC50 (second compound 10 µM): 141 nM | viability, T/C [1]: 107% | viability, T/C [2]: 89.7% | viability, T/C [3]: 28.9% | viability, T/C [4]: 3.06% | viability, T/C [5]: 0.12% | viability, T/C [6]: 1% | viability, T/C [7]: 102% | viability, T/C [8]: 83.4% | viability, T/C [9]: 28.9% | viability, T/C [10]: 2.6% | viability, T/C [11]: 0.1% | viability, T/C [12]: 0.19% | viability, T/C [13]: 86% | viability, T/C [14]: 83.4% | viability, T/C [15]: 26.8% | viability, T/C [16]: 3.25% | viability, T/C [17]: 0.11% | viability, T/C [18]: 0.17% | viability, T/C [19]: 81.4% | viability, T/C [20]: 77.2% | viability, T/C [21]: 30.3% | viability, T/C [22]: 3.47% | viability, T/C [23]: 0.09% | viability, T/C [24]: 0.35% | viability, T/C [25]: 77.8% | viability, T/C [26]: 70.8% | viability, T/C [27]: 29.4% | viability, T/C [28]: 2.84% | viability, T/C [29]: 0.54% | viability, T/C [30]: 0.91% | viability, T/C [31]: 59.5% | viability, T/C [32]: 55.8% | viability, T/C [33]: 34.1% | viability, T/C [34]: 2.57% | viability, T/C [35]: 0.19% | viability, T/C [36]: 0.77%
